ChEMBL document CHEMBL4800722, “Data for DCP probe BI 605906” (2021)

Legend:
[1] = target: Ephrin type-B receptor 3 (Homo sapiens) (UniProt P54753); settings: Compound concentration 1.0 uM
[2] = target: Phosphodiesterase 4 (Homo sapiens) (UniProt P27815+Q08499+Q07343+Q08493); assay: PDE-IV/HU Eurofins SafetyScreen44 (BI); assay type: protein assay; settings: Compound concentration 10.0 uM
[3] = target: Serine/threonine-protein kinase 16 (Homo sapiens) (UniProt O75716); settings: Compound concentration 1.0 uM
Chain of Serine/threonine-protein kinase 16 (Homo sapiens) (O75716 whole entry): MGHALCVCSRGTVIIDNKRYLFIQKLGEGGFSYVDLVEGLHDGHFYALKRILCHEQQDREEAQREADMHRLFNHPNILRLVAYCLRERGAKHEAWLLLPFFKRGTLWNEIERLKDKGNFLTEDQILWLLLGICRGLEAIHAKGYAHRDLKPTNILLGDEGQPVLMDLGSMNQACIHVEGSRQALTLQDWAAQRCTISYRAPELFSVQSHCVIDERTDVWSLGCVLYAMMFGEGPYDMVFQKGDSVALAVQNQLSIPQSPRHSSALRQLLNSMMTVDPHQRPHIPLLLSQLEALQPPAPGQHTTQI

[4] = target: Mitogen-activated protein kinase kinase kinase 8 (Homo sapiens) (UniProt P41279); settings: Compound concentration 1.0 uM
Chain of Mitogen-activated protein kinase kinase kinase 8 (Homo sapiens) (P41279 whole entry): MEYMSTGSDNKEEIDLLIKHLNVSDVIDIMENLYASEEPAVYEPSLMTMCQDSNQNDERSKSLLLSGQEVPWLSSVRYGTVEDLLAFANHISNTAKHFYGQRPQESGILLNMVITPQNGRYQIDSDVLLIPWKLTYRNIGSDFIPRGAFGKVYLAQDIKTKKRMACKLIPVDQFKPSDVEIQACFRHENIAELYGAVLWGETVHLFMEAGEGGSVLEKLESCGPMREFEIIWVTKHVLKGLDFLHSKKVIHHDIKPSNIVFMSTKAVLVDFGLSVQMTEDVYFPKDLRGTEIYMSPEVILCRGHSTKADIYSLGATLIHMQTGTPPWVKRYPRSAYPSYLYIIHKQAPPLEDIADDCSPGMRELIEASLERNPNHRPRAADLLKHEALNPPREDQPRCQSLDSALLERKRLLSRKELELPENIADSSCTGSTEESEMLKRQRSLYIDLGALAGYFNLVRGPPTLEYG

[5] = target: AMPK alpha2/beta1/gamma1 (Homo sapiens) (UniProt P54646+P54619+Q9Y478); assay: AMPK A2B1G1 Invitrogen Lab (UK) kinase screen (BI); assay type: protein-complex assay; settings: Compound concentration 1.0 uM
[6] = target: Polyunsaturated fatty acid lipoxygenase ALOX12 (Homo sapiens) (UniProt P18054); settings: Compound concentration 10.0 uM
[7] = target: Dual specificity tyrosine-phosphorylation-regulated kinase 1A (Homo sapiens) (UniProt Q13627); settings: Compound concentration 1.0 uM
[8] = target: Mitogen-activated protein kinase 14 (Homo sapiens) (UniProt Q16539); settings: Compound concentration 1.0 uM
Chain of Mitogen-activated protein kinase 14 (Homo sapiens) (Q16539 whole entry): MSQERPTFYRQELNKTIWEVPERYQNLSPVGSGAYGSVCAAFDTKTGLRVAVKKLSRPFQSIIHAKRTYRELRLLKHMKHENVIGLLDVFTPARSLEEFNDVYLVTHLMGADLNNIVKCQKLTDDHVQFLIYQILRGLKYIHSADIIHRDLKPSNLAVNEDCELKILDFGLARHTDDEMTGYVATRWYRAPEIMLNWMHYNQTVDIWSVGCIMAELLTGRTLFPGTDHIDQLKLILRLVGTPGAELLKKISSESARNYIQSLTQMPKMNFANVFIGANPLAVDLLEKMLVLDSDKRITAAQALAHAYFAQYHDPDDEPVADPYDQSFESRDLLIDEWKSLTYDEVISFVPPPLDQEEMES

[9] = target: Sodium-dependent serotonin transporter (Homo sapiens) (UniProt P31645); settings: Compound concentration 10.0 uM
[10] = target: CDK3/Cyclin E (Homo sapiens) (UniProt P24864+Q00526); assay: CDK3/CYCLIN E1 Invitrogen Lab (UK) kinase screen (BI); assay type: protein-complex assay; settings: Compound concentration 1.0 uM
Chain of CDK3/Cyclin E (Homo sapiens) (P24864 whole entry, looked up): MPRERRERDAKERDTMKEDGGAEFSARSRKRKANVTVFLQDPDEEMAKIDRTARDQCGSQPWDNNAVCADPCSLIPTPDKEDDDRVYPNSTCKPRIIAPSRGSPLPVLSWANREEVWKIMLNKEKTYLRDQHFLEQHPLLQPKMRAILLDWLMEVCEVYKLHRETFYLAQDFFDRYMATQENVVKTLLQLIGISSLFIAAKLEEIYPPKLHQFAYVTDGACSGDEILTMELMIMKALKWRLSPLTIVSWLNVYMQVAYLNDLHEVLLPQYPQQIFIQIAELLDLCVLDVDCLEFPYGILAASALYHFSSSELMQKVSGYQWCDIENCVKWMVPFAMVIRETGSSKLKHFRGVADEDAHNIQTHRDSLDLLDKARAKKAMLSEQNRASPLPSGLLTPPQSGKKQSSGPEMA
Chain of CDK3/Cyclin E (Homo sapiens) (Q00526 whole entry, looked up): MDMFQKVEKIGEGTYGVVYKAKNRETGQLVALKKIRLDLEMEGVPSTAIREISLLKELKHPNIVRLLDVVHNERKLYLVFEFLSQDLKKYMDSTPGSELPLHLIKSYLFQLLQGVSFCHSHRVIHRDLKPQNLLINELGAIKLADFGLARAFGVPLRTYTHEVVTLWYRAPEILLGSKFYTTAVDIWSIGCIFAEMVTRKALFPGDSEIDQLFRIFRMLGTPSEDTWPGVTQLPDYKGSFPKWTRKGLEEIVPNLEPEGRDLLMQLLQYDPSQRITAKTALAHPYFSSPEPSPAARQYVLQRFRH

[11] = target: Dual specificity mitogen-activated protein kinase kinase 1 (Homo sapiens) (UniProt Q02750); assay: MAP2K1 Invitrogen Lab (UK) kinase screen (BI)
Chain of Dual specificity mitogen-activated protein kinase kinase 1 (Homo sapiens) (Q02750 whole entry): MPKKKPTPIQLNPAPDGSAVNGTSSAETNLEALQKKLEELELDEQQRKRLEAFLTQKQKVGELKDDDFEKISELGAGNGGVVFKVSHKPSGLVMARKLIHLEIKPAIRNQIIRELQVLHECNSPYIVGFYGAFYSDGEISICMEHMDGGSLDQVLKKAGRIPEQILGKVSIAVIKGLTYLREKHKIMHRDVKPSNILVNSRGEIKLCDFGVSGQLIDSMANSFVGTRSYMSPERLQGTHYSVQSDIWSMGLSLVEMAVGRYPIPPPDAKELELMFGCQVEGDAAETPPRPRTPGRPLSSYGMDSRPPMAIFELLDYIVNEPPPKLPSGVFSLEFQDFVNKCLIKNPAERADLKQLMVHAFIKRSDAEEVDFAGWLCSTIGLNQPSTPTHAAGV

[12] = target: DNA-dependent protein kinase catalytic subunit (Homo sapiens) (UniProt P78527); settings: Compound concentration 1.0 uM
[13] = target: T1, D(4) dopamine receptor (Homo sapiens) (UniProt P21917); settings: Compound concentration 10.0 uM
T1 sequence (whole entry): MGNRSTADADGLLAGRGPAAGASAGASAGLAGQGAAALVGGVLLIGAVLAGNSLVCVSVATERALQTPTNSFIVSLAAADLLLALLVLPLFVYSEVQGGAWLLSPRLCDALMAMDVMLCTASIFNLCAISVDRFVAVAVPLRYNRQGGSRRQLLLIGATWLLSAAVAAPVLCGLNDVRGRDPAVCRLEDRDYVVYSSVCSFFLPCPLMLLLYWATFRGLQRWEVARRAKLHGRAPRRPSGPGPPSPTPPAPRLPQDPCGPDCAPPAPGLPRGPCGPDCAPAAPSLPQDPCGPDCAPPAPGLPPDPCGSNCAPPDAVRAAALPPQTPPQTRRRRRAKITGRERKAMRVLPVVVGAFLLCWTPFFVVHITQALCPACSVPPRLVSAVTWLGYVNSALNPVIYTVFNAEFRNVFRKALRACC

[14] = target: Serine/threonine-protein kinase D3 (Homo sapiens) (UniProt O94806); settings: Compound concentration 1.0 uM
[15] = target: Rho-associated protein kinase 1 (Homo sapiens) (UniProt Q13464); assay: ROCK1 Invitrogen Lab (UK) kinase screen (BI)
Chain of Rho-associated protein kinase 1 (Homo sapiens) (Q13464 2-1354 limits assumed): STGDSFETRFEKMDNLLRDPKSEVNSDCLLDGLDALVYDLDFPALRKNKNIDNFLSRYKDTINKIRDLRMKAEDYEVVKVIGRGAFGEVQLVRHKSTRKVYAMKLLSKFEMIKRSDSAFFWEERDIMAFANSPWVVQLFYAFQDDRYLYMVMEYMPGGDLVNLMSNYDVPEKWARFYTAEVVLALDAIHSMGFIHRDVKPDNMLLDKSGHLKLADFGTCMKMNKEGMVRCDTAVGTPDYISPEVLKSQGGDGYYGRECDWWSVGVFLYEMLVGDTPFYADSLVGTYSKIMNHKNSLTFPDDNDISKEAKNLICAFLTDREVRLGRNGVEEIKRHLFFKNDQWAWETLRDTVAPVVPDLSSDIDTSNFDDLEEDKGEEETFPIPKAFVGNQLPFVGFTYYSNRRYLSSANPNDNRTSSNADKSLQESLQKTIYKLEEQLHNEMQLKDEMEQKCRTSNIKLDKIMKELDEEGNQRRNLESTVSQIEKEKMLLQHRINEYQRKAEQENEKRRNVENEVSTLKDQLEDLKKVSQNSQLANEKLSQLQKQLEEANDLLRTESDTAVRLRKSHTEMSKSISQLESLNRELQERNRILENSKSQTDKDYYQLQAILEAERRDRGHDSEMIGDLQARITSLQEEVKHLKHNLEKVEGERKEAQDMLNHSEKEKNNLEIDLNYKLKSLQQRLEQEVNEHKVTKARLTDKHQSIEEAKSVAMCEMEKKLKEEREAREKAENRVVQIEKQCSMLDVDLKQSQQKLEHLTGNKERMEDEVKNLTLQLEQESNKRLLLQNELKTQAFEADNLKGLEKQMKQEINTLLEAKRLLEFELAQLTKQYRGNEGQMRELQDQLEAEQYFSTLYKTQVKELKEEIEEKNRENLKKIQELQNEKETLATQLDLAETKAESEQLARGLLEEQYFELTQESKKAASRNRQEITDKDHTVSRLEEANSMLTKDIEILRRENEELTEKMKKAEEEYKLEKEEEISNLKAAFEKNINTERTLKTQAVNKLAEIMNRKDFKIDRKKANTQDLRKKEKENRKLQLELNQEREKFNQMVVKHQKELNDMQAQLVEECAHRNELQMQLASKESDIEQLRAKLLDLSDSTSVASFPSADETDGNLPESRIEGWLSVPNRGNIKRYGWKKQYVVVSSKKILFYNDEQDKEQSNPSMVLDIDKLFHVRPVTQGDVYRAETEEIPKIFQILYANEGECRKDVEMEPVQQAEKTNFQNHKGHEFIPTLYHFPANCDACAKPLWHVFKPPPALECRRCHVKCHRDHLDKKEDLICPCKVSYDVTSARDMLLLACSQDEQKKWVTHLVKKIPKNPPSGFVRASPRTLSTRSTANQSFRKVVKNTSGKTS

[16] = target: Sodium-dependent noradrenaline transporter (Homo sapiens) (UniProt P23975); assay: NETRANS/H Eurofins SafetyScreen44 (BI); settings: Compound concentration 10.0 uM
Chain of Sodium-dependent noradrenaline transporter (Homo sapiens) (P23975 whole entry): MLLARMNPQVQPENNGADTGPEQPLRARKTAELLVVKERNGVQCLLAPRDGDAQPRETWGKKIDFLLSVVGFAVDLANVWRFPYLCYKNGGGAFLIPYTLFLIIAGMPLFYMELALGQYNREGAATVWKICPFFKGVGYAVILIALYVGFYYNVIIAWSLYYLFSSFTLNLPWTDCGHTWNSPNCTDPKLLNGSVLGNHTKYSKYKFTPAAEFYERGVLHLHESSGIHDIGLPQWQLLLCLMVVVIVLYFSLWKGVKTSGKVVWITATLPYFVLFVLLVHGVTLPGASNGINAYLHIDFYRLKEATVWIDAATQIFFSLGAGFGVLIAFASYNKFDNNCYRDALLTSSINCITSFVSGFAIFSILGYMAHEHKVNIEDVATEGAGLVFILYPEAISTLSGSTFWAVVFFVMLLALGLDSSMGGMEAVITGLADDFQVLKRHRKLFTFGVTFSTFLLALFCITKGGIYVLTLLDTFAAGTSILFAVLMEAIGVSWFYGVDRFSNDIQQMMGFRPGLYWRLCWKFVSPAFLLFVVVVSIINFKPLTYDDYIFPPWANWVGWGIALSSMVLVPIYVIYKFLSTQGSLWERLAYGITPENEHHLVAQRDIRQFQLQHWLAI

[17] = target: Calcium/calmodulin-dependent protein kinase type 1D (Homo sapiens) (UniProt Q8IU85); settings: Compound concentration 1.0 uM
Chain of Calcium/calmodulin-dependent protein kinase type 1D (Homo sapiens) (Q8IU85 whole entry, looked up): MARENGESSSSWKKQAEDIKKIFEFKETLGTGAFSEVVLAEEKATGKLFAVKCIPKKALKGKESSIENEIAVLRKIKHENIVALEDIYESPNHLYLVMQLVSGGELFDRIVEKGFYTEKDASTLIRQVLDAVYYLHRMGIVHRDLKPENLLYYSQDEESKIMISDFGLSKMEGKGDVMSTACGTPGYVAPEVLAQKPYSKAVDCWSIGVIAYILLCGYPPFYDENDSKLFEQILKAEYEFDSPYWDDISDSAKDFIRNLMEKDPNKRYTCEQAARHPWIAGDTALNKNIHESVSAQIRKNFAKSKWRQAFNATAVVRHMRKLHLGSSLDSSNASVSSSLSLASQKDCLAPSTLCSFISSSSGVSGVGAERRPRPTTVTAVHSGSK

[18] = target: T2, Cyclin-G-associated kinase (Homo sapiens) (UniProt O14976)
T2 sequence (whole entry): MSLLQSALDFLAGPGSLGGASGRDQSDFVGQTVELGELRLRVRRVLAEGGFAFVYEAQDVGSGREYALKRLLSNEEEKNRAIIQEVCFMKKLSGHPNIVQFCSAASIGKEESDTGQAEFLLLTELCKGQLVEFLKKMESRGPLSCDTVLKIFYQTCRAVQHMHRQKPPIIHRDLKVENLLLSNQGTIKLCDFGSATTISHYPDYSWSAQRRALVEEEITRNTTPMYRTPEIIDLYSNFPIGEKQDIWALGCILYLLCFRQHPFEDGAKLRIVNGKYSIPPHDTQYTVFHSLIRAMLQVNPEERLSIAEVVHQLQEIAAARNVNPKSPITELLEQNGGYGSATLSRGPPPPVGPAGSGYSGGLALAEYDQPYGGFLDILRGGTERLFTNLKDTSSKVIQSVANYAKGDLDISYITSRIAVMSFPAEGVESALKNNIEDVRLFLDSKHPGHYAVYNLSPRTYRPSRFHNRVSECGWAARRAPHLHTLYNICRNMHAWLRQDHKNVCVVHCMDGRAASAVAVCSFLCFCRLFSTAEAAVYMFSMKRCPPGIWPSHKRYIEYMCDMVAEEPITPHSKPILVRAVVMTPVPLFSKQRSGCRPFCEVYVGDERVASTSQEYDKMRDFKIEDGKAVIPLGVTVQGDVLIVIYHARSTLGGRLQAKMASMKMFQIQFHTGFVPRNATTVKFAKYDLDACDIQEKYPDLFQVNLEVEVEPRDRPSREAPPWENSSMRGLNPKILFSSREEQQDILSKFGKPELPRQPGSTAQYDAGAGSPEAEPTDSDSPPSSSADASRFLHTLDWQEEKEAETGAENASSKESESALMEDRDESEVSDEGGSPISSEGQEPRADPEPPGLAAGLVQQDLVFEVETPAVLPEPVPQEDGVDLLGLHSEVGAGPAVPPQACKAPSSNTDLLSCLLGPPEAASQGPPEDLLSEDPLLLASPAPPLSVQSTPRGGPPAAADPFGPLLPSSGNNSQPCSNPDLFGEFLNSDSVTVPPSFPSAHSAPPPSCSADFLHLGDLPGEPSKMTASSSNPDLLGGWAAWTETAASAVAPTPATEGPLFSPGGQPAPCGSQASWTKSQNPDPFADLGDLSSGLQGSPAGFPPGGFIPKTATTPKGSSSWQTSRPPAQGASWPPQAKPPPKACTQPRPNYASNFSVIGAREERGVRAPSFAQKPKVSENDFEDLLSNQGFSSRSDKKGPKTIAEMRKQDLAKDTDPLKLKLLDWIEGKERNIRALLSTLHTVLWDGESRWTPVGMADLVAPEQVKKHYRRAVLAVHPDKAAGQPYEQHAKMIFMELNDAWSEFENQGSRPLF

[19] = target: Mu-type opioid receptor (Homo sapiens) (UniProt P35372); settings: Compound concentration 10.0 uM
Chain of Mu-type opioid receptor (Homo sapiens) (P35372 whole entry): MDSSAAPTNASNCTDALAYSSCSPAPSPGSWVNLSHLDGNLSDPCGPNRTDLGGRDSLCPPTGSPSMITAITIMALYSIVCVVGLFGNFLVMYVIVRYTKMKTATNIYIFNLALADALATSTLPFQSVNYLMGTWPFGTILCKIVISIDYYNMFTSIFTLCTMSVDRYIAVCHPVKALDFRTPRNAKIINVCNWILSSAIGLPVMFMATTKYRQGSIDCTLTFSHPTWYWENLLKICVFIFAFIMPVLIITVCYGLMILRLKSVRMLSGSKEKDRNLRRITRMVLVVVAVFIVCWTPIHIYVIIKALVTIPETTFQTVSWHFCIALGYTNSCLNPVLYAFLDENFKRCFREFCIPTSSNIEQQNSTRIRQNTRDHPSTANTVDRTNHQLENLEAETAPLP

[20] = target: Serine/threonine-protein kinase MARK1 (Homo sapiens) (UniProt Q9P0L2); settings: Compound concentration 1.0 uM

Compound `CCC(F)(F)c1cc(N2CCC(S(C)(=O)=O)CC2)nc2sc(C(N)=O)c(N)c12` [BI-605906] has a residual activity [1] of 99%, a residual activity [2] of 68% and a residual activity [3] of 91%. For the same compound, the residual activity [4] was 90%, the residual activity [5] was 88% and the residual activity [6] was 96%. It also gave a residual activity [7] of 91%, a residual activity [8] of 89% and an inhibition [9] of 8.94%. It also gave a residual activity [10] of 78%, a residual activity ([11]; Compound concentration 1.0 uM) of 76% and a residual activity ([11]; Compound concentration 10.0 uM) of 80%. The residual activity [12] was 90%, the inhibition [13] was 44.6% and the residual activity [14] was 91%. It also gave a residual activity ([15]; Compound concentration 1.0 uM) of 88%, a residual activity ([15]; Compound concentration 10.0 uM) of 47% and a residual activity [16] of 112%. The residual activity [17] was 98%, the residual activity ([18]; Compound concentration 0.001 uM) was 99% and the residual activity ([18]; Compound concentration 1.0 uM) was 7%. For the same compound, the residual activity ([18]; Compound concentration 20.0 uM) was 6%, the inhibition [19] was 5.18% and the residual activity [20] was 91%.
